Test systems include SN12C renal; SF-539 CNS; CAKI-1 renal; UO-31 renal; TK-10 renal; HCC-2998 colon; K-562 leukemia; BT-549 breast; UACC-62 melanoma; RXF 393 renal; SK-MEL-28 melanoma.
What all share (assay): NCI anticancer screen, dose series, 48 h

Here are results for 13 compounds from PubChem BioAssay (NCI).

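Method: 48-hour compound exposure of cells in 96-well plates, five concentrations, linear interpolation of endpoints. At the TGI there is no net growth.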

`NC(=O)c1nnc2cc(F)ccc2c1N`: the TGI in the test on SN12C renal, with SF-539 CNS, with CAKI-1 renal, in the test with UO-31 renal, in the test with TK-10 renal and in the test on HCC-2998 colon was > 100 µM throughout. Moreover, the TGI in the test on K-562 leukemia, with BT-549 breast and in the test on UACC-62 melanoma was > 100 µM each time.

As to `CNc1ccc(-c2nc3cc(C)ccc3o2)cc1`, the TGI with SN12C renal is > 100 µM; in the test with SF-539 CNS, > 100 µM; in the test on RXF 393 renal it was 79.8 µM; in the test with CAKI-1 renal, > 100 µM; with UO-31 renal, > 100 µM; in the test on TK-10 renal it was > 100 µM. In addition, the TGI in the test on HCC-2998 colon, in the test with K-562 leukemia, with SK-MEL-28 melanoma, in the test on BT-549 breast and with UACC-62 melanoma was > 100 µM each time.

`Clc1nc(Cl)c(Cl)c(Cl)n1`: the TGI in the test on SN12C renal turned out to be 42.7 µM; in the test with SF-539 CNS, 47.9 µM; in the test on RXF 393 renal, 35 µM; in the test on CAKI-1 renal, 35.6 µM; in the test with UO-31 renal, 46.4 µM; in the test on TK-10 renal it was 37.3 µM. The TGI was determined as 35.5 µM with HCC-2998 colon; 28 µM in the test with K-562 leukemia; 41.3 µM with SK-MEL-28 melanoma; 42.4 µM in the test with BT-549 breast; 35.7 µM in the test on UACC-62 melanoma.

Consider `O=C1C(F)=CC(COC(c2ccccc2)(c2ccccc2)c2ccccc2)OC1n1cc(F)c(=O)[nH]c1=O` (stereo unspecified), for which the TGI was found to be 4.29 µM with SN12C renal; 3.75 µM in the test on SF-539 CNS; 4.11 µM in the test on RXF 393 renal; 9.09 µM in the test with CAKI-1 renal; 5.61 µM in the test on UO-31 renal; 3.43 µM in the test on TK-10 renal. Further, the TGI in the test with HCC-2998 colon is 14.1 µM; in the test with K-562 leukemia it was > 100 µM; with SK-MEL-28 melanoma it was 3.5 µM; in the test with BT-549 breast it was 4.38 µM; in the test on UACC-62 melanoma, 3.62 µM.

As to `COC1=C(N=[N+]=[N-])C(=O)c2ncccc2C1=O`, the TGI turned out to be 29.1 µM with SN12C renal; 30.5 µM in the test on SF-539 CNS; 11.9 µM with RXF 393 renal; 13.3 µM in the test on CAKI-1 renal; 27.6 µM with UO-31 renal; 20.4 µM with TK-10 renal. In addition, the TGI in the test with HCC-2998 colon was 31 µM; with K-562 leukemia, 15.2 µM; with SK-MEL-28 melanoma it was 27.4 µM; in the test with BT-549 breast it was 23 µM; in the test with UACC-62 melanoma it was 20.8 µM.

Turning to `CCOC(=O)/C(=C\c1ccc(N(C)C)cc1)S(=O)(=O)C(F)(F)C(F)(F)C(F)(F)C(F)(F)F`, the TGI in the test on SN12C renal, in the test with SF-539 CNS, in the test with CAKI-1 renal, with UO-31 renal, in the test on TK-10 renal and with HCC-2998 colon was > 100 µM each time. Further, the TGI with K-562 leukemia, in the test on SK-MEL-28 melanoma, in the test on BT-549 breast and in the test on UACC-62 melanoma was > 100 µM each time.

Regarding `CC(C)C(C/C=C1\CC(CO)(COC(=O)c2ccccc2)OC1=O)C(C)C` (stereo unspecified), the TGI in the test with SN12C renal is 31.1 µM; in the test on RXF 393 renal, 45.4 µM; in the test with CAKI-1 renal, 33.8 µM; in the test with UO-31 renal it was 32.4 µM; in the test with TK-10 renal it was 34.2 µM; with HCC-2998 colon, 44.8 µM. For the same compound, the TGI in the test on K-562 leukemia was 44.1 µM; with SK-MEL-28 melanoma, 30.2 µM; in the test with BT-549 breast, 36.9 µM; in the test on UACC-62 melanoma, > 100 µM.

Consider `COc1cc2c(c(OC)c1OC)-c1ccc(SC)c(=O)cc1[C@@H](OC(C)=O)CC2`, for which the TGI in the test with SN12C renal was > 100 µM; in the test with RXF 393 renal, > 100 µM; with CAKI-1 renal, > 100 µM; with UO-31 renal, > 52.5 µM; in the test on TK-10 renal it was > 100 µM; in the test on K-562 leukemia it was > 100 µM. The TGI in the test on SK-MEL-28 melanoma, in the test on BT-549 breast and in the test with UACC-62 melanoma was > 100 µM each time.

Take `FC(F)(F)c1ccccc1N1CCN(c2nc(-c3cccs3)nc3ccc(Br)cc23)CC1`: the TGI was > 100 µM with SN12C renal; > 100 µM with SF-539 CNS; 94.5 µM in the test on CAKI-1 renal; > 100 µM in the test on UO-31 renal; 97.3 µM with TK-10 renal; 25 µM in the test with HCC-2998 colon. Besides, the TGI in the test on K-562 leukemia is > 100 µM; in the test on SK-MEL-28 melanoma, > 100 µM; in the test with BT-549 breast, > 100 µM; in the test with UACC-62 melanoma, 46.3 µM.

With `Clc1ccc(Cc2nc3ccc(CCN4CCN(c5ccccc5)CC4)cc3[nH]2)cc1`, the TGI amounted to 33.8 µM in the test with SN12C renal; 33.5 µM in the test with SF-539 CNS; 19.1 µM in the test on RXF 393 renal; 38.6 µM in the test on CAKI-1 renal; 20.3 µM in the test on UO-31 renal; 27 µM in the test with TK-10 renal. The TGI worked out at 30.6 µM in the test with K-562 leukemia, 54.3 µM with SK-MEL-28 melanoma, 34 µM in the test on BT-549 breast and 33.6 µM in the test on UACC-62 melanoma.

In the case of `COc1ccccc1C1SCC(=O)N1c1ccc(-c2ccc(-n3c(-c4ccccc4)nc4ccccc4c3=O)cc2)cc1` (stereo unspecified), the TGI with SN12C renal, with SF-539 CNS, in the test with CAKI-1 renal, in the test with UO-31 renal, in the test with TK-10 renal and in the test with HCC-2998 colon was > 100 µM each time. Besides, the TGI in the test with K-562 leukemia, in the test with SK-MEL-28 melanoma, in the test with BT-549 breast and in the test on UACC-62 melanoma was > 100 µM throughout.

With `ClC(Cl)(Cl)C1=N[C@H]2[C@H](Br)[C@@H]3O[C@@H](c4ccccc4)[C@H](c4ccccc4)O[C@@H]3[C@H]2O1`, the TGI in the test with SN12C renal was found to be 37.2 µM; in the test on RXF 393 renal it was 45.4 µM; in the test with CAKI-1 renal, 32.6 µM; in the test with UO-31 renal it was 38.5 µM; with TK-10 renal, 37.5 µM; in the test on HCC-2998 colon, 28.5 µM. Also, the TGI came out at 54 µM in the test with K-562 leukemia, 37.1 µM in the test on SK-MEL-28 melanoma, 53 µM with BT-549 breast and 31.5 µM in the test with UACC-62 melanoma.

Turning to `O=C(CN1CCN(Cc2ccccc2)CC1)N1CCCn2c1nc1ccccc1c2=O`, the TGI in the test with SN12C renal, with SF-539 CNS, with CAKI-1 renal, in the test with UO-31 renal, in the test with TK-10 renal and with HCC-2998 colon was > 100 µM in each case. Also, the TGI with K-562 leukemia, with BT-549 breast and in the test on UACC-62 melanoma was > 100 µM each time.
